Assay results reported in patent US20210238184A1, “THERAPEUTIC COMPOUNDS” (Genentech, Inc., priority 2018, published 2021).

How the values were obtained:
TEAD2 YAP50-100 = TEAD2 YAP50-100 (Homo sapiens, UniProt Q15562); test: TEAD2:YAP50-100 protein-protein interaction HTRF (TR-FRET) assay; conditions: His-tagged TEAD YAP binding domain (aa 217-447), biotinylated YAP peptide aa 50-100; 30 min pre-incubation, 60 min at room temperature; read-out: TEAD2 YAP50-100 HTRF WuXi EC50
Method: (§1) Purified His-tagged TEAD protein (YAP Binding Domain, amino acids 217-447) is pre-incubated with Europium labelled anti-His antibody tracer (Perkin Elmer Cat #AD0110). Small molecule Inhibitors are then incubated with the TEAD-Eu protein complex for 30 minutes to allow for binding to TEAD protein. Biotinylated YAP peptide (AA's 50-100) that has been pre-incubated with streptavidin x1665 acceptor (CIS-Bio Cat #610SAXAC) is added to the compound-TEAD mix. The TEAD-YAP-inhibitor mixture is then incubated for 60 minutes at room temperature. All reactions are carried out in a polystyrene plate. After 60 minutes, the plate is read on a plate reader using TR-FRET mode with wavelengths of 665 nm/615 nm. If YAP binds to TEAD as expected, a TR-FRET signal results from the proximity of YAP and TEAD after binding. If an inhibitor such as peptide 17 (Selleckchem Cat #S8164) interferes with YAP-TEAD binding, the disruption of the YAP:TEAD interaction results in a decrease in TR-FRET signal. The potency of compounds as YAP:TEAD protein-protein interaction (PPi) inhibitors is determined by an IC50 or EC50 value generated using a non-linear four parameter curve fit.

TEAD3 YAP50-100 = TEAD3 YAP50-100 (Homo sapiens, UniProt Q99594); test: TEAD3:YAP50-100 protein-protein interaction HTRF (TR-FRET) assay; conditions: His-tagged TEAD YAP binding domain (aa 217-447), biotinylated YAP peptide aa 50-100; 30 min pre-incubation, 60 min at room temperature; read-out: TEAD3 YAP50-100 HTRF WuXi EC50
Method: as §1

Chain of TEAD2 YAP50-100 (Q15562 217-447): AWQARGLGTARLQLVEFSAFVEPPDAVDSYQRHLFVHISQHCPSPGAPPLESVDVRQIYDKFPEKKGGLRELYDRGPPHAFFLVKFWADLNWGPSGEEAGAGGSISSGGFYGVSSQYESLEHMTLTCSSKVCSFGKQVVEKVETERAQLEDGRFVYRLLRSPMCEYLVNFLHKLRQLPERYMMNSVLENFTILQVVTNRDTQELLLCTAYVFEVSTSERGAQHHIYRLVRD
Chain of TEAD3 YAP50-100 (Q99594 216-435 limits assumed): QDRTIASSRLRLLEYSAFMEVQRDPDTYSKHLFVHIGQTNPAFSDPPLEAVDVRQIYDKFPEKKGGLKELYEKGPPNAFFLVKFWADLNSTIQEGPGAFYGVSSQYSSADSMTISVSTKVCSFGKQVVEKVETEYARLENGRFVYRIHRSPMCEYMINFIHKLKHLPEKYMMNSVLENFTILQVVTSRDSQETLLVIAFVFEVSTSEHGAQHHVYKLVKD

| Structure (SMILES) | EC50 (TEAD2 YAP50-100) [nM] | EC50 (TEAD3 YAP50-100) [nM] |
| --- | --- | --- |
| CCOC(=O)c1cnn2c(=O)cc(-c3ccc(C4CCCC4(C)C)cc3)[nH]c12 (single isomer, unassigned) [Example 19] | 270 | 37 |
| CCOC(=O)c1cnn2c(=O)cc(-c3ccc(C4CCCC4(C)C)cc3)[nH]c12 (single isomer, unassigned) [Example 20] | 187 | 60 |
| CN(C)C(=O)c1cnn2c(=O)cc(-c3ccc(C4CCCC4(C)C)cc3)[nH]c12 (single isomer, unassigned) [Example 21] | 220 | 21 |
| CN(C)C(=O)c1cnn2c(=O)cc(-c3ccc(C4CCCC4(C)C)cc3)[nH]c12 (single isomer, unassigned) [Example 22] | 378 | 42 |
| C[C@H]1[C@@H](CF)CN1C(=O)c1cnn2c(=O)cc(-c3ccc(C4CCCCC4)cc3)[nH]c12 (single isomer, unassigned) [Example 45] | 8 | 43 |
| C[C@@H]1[C@H](CF)CN1C(=O)c1cnn2c(=O)cc(-c3ccc(C4CCCCC4)cc3)[nH]c12 (single isomer, unassigned) [Example 46] | 755 | 3100 |
| CCOC(=O)c1cnn2c(=O)cc(-c3ccc(C4CCC(F)(F)CC4)cc3)[nH]c12 [Example 1, Ethyl 5-(4-(4,4-difluorocyclohexyl)phenyl)-7-oxo-4,7-dihydropyrazolo[1,5-a]pyrimidine-3-carboxylate] | 263 | 41 |
| CCOC(=O)c1cnn2c(=O)cc(-c3ccc(C4CCCC4)cc3)[nH]c12 [Example 2, Ethyl 5-(4-cyclopentylphenyl)-7-oxo-4,7-dihydropyrazolo[1,5-a]pyrimidine-3-carboxylate] | 120 | 19 |
| CN(C)C(=O)c1cnn2c(=O)cc(-c3ccc(C4CCCC4)cc3)[nH]c12 [Example 3, 5-(4-Cyclopentylphenyl)-N,N-dimethyl-7-oxo-4,7-dihydropyrazolo[1,5-a]pyrimidine-3-carboxamide] | 342 | 16 |
| CCOC(=O)c1cnn2c(=O)cc(-c3ccc(C4CCCCC4)cc3)[nH]c12 [Example 4, Ethyl 5-(4-cyclohexylphenyl)-7-oxo-4,7-dihydropyrazolo[1,5-a]pyrimidine-3-carboxylate] | 66 | 19 |
| CN(CCO)C(=O)c1cnn2c(=O)cc(-c3ccc(C4CCCCC4)cc3)[nH]c12 [Example 5, 5-(4-cyclohexylphenyl)-N-(2-hydroxyethyl)-N-methyl-7-oxo-4,7-dihydropyrazolo[1,5-a]pyrimidine-3-carboxamide] | 1100 | 567 |
| CCN(C)C(=O)c1cnn2c(=O)cc(-c3ccc(C4CCCCC4)cc3)[nH]c12 [Example 6, 5-(4-Cyclohexylphenyl)-N-ethyl-N-methyl-7-oxo-4,7-dihydropyrazolo[1,5-a]pyrimidine-3-carboxamide] | 67 | 18 |
| CN(C)C(=O)c1cnn2c(=O)cc(-c3ccc(C4CCCCC4)cc3)[nH]c12 [Example 7, 5-(4-Cyclohexylphenyl)-N,N-dimethyl-7-oxo-4,7-dihydropyrazolo[1,5-a]pyrimidine-3-carboxamide] | 87 | 18 |
| O=C(c1cnn2c(=O)cc(-c3ccc(C4CCCCC4)cc3)[nH]c12)N1CCC1 [Example 8, 3-(Azetidine-1-carbonyl)-5-(4-cyclohexylphenyl)pyrazolo[1,5-a]pyrimidin-7(4H)-one] | 38 | 23 |
| CC1(O)CN(C(=O)c2cnn3c(=O)cc(-c4ccc(C5CCCCC5)cc4)[nH]c23)C1 [Example 9, 5-(4-Cyclohexylphenyl)-3-(3-hydroxy-3-methylazetidine-1-carbonyl)pyrazolo[1,5-a]pyrimidin-7(4H)-one] | 333 | 1300 |
| O=C(c1cnn2c(=O)cc(-c3ccc(C4CCCCC4)cc3)[nH]c12)N1CC(O)C1 [Example 10, 5-(4-Cyclohexylphenyl)-3-(3-hydroxyazetidine-1-carbonyl)pyrazolo[1,5-a]pyrimidin-7(4H)-one] | 548 | 72 |
